Test [1] deals with Bel7402. In words: MTT assay. It is filed as cell-based. The conditions noted are these: Homo sapiens, Bel-7402; Bel7402, Liver, tumor; read-out: IC50 proliferation. As for the experimental part:
(§1) The MTT assay was performed as described. In brief, cells were seeded at 3000~5000 cells/well into 96-well plates (200 μL/well) and incubated overnight. We replaced the growth medium with fresh medium containing T521 at several concentrations (two-fold dilutions and the initial concentration is 50 μM, 10 reactions total). After further incubation for 48 hrs in the presence of T521, the medium was removed from all wells and the cells were incubated with 200 μL of fresh medium for additional 24 hrs. We then added 22 μL of MTT solution (Amresco; 5 mg/mL in PBS) to each well and incubated the plate for 4 hrs at 37°C. After removing the medium, we dissolved the purple MTT-formazan crystals by adding 150 μL of DMSO to each well and recorded absorbance at 560 nm by Envision Multilabel Reader (PerkinElmer). The inhibition curve was plotted to determine the IC50 of various cell lines using GraphPad Prism5.0.
(Tetrazolium assays rely on reduction of a dye to a coloured formazan, in cell work by metabolically active cells.)

Test [2] deals with HT29. As to the kind of experiment: MTT assay. Conditions: Homo sapiens, HT-29; HT29, Colon, tumor; read-out: IC50 proliferation. Format: cell-based. As for the experimental part:
as §1

Test [3] concerns HeLa cells. As to the kind of experiment: Immunofluorescence assay, mitotic phase distribution. It is filed as cell-based, human. Conditions: 10 hrs; for percentage of prometaphase cells: synchronized HeLa, control 23.3%. As for the experimental part: To determine mitotic phase distribution, about 50 mitotic cells were analyzed. Cells were classified according to the structure and alignment of the chromosomes as well as the number and location of the centrosomes. All experiments were performed in triplicate. For confocal microscopy, HeLa cells grown on coverslips were fixed and permeabilized in methanol for 15 min at −20°C and then incubated with blocking buffer (PBS with 0.1% Triton X-100 and 5% BSA) for 2 hrs at RT. And then the coverslips were followed by washing and incubation with primary antibodies and fluorophore-conjugated secondary antibodies for 1 hr at RT, respectively. All antibodies were diluted in blocking buffer and the coverslips were washed three times with PBST, and then all coverslips were treated with 4',6-diamidino-2-phenylindole (DAPI) (Sigma; 2 μg/mL) for 2 min at RT, washed again and mounted onto slides using ProLong Diamond Antifade Mountant (Cat# 36961; Molecular Probes). Immunofluorescence images were taken with Olympus FV1000 Confocal Laser Microscope (Olympus, Japan) at 600×magnification. All images were processed using FV10-ASW 3.0 Viewer Software System (Olympus, Japan). The following antibodies were used: anti-α-Tubulin mouse monoclonal antibody (Cat# T9026; Sigma; 1:800), anti-γ-Tubulin rabbit polyclonal antibody (Cat# T3559; Sigma; 1:1500), Alex Fluor 488-conjugated goat anti-mouse IgG (Cat# A-11011; Molecular Probes; 1:1000) and Alex Fluor 594-conjugated donkey anti-rabbit IgG (Cat# A-21207; Molecular Probes; 1:1000).

The test system of test [4] is PARP cleavage in HeLa cells. As to the kind of experiment: Western blot of PARP cleavage. Conditions: 24 hrs. Format: cell-based, human. As for the experimental part:
We also performed a western blot assay to examine PARP cleavage, and the protocol was similar as describe above. Equal amount of proteins (30 μg/lane) were loaded, separated by 12% SDS-PAGE. Anti-PARP rabbit polyclonal antibody (Cat# 9542P; Cell Signaling Technology; 1:1500) was used as primary antibody. GAPDH was used as the loading control.
(In general: In western blotting, separated proteins are transferred to a membrane and probed.)

In test [5] the target is T1, Plk1 PBD (Homo sapiens, UniProt P53350).
T1 construct: (326-603 aa), Plk2 (355-685 aa), and Plk3 (335-646 aa); 6xHis (N); 6xHis (C); made in house; host or cells: E. coli Rosetta BL21(DE3)
T1 sequence (P53350 326-603): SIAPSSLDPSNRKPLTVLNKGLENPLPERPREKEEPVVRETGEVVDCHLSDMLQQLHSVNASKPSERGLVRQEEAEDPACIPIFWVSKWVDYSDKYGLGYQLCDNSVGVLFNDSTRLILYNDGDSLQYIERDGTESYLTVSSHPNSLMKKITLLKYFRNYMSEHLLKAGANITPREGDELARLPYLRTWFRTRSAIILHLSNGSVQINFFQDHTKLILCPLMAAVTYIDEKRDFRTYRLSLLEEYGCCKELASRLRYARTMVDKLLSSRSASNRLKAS
As to the kind of experiment: Circular dichroism spectroscopy. The conditions noted are these: complex with T521. As for the experimental part: PAGE, and then the stained band was excised from The raw data was processed using Proteome the polyacrylamide gel, washed twice with water, and Discoverer software (Thermo Fischer). MS2 spectra destained with 40% ACN/50 mM NH4HCO3. The gel were searched with SEQUEST engine against target Plk1 pieces were dehydrated with 100% ACN and dried for protein and common pollution proteins database (246 5 min using a speedvac. Disulfide bonds were reduced Protein Sequences). Database searches were performed by treatment with DTT (10 mM, 56°C, 45 min), and the with the following parameters: precursor mass tolerance free sulfhydryl groups were alkylated with iodoacetamide 20 ppm; MS/MS mass tolerance 0.6 Da; two missed (55 mM, 25°C, 60 min in the dark). After drying with cleavage for tryptic peptides; variable modifications a speedvac, the gel was rehydrated using 100 ng/μL oxidation (M), T521 fragment modification (+301.02) trypsin (50 mM NH4HCO3, pH8.3) on ice for 30 min, (K, R), fixed modification Carbamidomethyl (C), the and the digestion was carried out at 37°C for 60 min and results were filtered for a 1% false discovery rate (FDR) then quenched with 1.0% FA. The tryptic peptides were at the PSM level utilizing the percolator-based algorithm. extracted twice with 60% ACN containing 0.1% FA, and Peptide identifications were grouped into proteins then the combined digest solution was concentrated to 25 according to the law of parsimony. […]
B; 90–91 min, 80%–4% B; 91–100 min, 4% B. Eluting the calculation of mean residue ellipticity. […] Three MS spectra were acquired from m/z 300 to m/z 1,800, and independent experiments were performed for each sample. the 10 most intense ions with charges more than 2 and Spectral deconvolution of CD data was performed using above an intensity threshold 500 were fragmented in the CDNN to determine relative quantities of α-helix, linear ion trap using normalized collision energy of 35%. β-sheet, β-turn and random coil. […]

Regarding `CCS(=O)(=O)c1oc(-c2ccc(F)cc2)nc1S(=O)(=O)c1ccccc1` [T521, 5-(ethylsulfonyl)-2-(4-fluorophenyl)-4-(phenylsulfonyl) oxazole], the IC50 in test [1] turned out to be 5.13 µM; in test [2], 3.86 µM. In addition, the “percentage of prometaphase cells” value in test [3] (5 μM) is reported as 32.7%; in test [3] (10 μM), 56.0%; in test [3] (15 μM), 76.2%. For the same compound, in test [3] (synchronized HeLa, 5, 10, 15 μM), the “metaphase cells with chromosome alignment defects” value is “remarkable increase”. Moreover, the PARP cleavage entry in test [4] is recorded as “increase of PARP cleavage”. Moreover, the “β-turn composition of Plk1 PBD complex” value in test [5] (native Plk1 PBD 21.08%) amounted to 29.59%. Further, the “α-helix composition of Plk1 PBD complex” value in test [5] (native Plk1 PBD 26.18%) is 11.63%. For the same compound, the “random coil composition of Plk1 PBD complex” value in test [5] (native Plk1 PBD 34.80%) turned out to be 41.46%.

Source of the values: paper PMC5352051, “Identification of a novel Polo-like kinase 1 inhibitor that specifically blocks the functions of Polo-Box domain” (Oncotarget, 2016).
